Series [1] deals with T1, Prostaglandin G/H synthase 2 (Mus musculus) (UniProt Q05769).
T1 sequence (whole entry): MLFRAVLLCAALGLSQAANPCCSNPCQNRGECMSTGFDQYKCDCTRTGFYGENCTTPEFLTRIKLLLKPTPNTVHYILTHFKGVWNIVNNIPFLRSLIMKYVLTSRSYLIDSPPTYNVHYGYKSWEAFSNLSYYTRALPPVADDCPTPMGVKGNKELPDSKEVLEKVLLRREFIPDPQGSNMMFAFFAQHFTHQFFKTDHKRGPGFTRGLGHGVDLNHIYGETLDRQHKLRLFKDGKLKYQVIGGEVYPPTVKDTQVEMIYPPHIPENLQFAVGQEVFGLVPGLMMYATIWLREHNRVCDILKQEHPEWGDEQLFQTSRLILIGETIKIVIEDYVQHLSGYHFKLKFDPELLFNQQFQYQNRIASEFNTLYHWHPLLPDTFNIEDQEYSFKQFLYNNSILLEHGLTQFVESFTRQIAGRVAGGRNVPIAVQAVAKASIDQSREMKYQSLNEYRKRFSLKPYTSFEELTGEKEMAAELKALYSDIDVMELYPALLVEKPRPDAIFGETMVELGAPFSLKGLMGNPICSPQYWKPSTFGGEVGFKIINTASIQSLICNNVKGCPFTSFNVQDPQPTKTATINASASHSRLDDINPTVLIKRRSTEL
Description: Inhibition of COX-2 in mouse RAW264.7 cells assessed as reduction in PGE2 production preincubated for 2 hrs followed by LPS stimulation measured after 24 hrs by enzyme immunoassay. The series is classed as cell-based.

The test system of series [2] is RAW264.7. Description: Antiinflammatory activity against mouse RAW264.7 cells assessed as inhibition of LPS induced cox-2 expression at 5 to 20 uM preincubated for 2 hrs followed by LPS challenge measured after 24 hrs by Western blot method. The series is classed as functional, cell-based.
For series [3], the system named is RAW264.7. Description: Down regulation of COX-1 expression in mouse RAW264.7 cells at 10 uM after 24 hrs by Western blot method. The series is classed as ADME, cell-based. The note with it: raw264.7, 24 h. On the technique in general: A western blot detects proteins with antibodies after separation by electrophoresis.
Series [4] concerns the target T2, Prostaglandin G/H synthase 1 (Mus musculus, UniProt P22437).
T2 sequence (P22437 whole entry): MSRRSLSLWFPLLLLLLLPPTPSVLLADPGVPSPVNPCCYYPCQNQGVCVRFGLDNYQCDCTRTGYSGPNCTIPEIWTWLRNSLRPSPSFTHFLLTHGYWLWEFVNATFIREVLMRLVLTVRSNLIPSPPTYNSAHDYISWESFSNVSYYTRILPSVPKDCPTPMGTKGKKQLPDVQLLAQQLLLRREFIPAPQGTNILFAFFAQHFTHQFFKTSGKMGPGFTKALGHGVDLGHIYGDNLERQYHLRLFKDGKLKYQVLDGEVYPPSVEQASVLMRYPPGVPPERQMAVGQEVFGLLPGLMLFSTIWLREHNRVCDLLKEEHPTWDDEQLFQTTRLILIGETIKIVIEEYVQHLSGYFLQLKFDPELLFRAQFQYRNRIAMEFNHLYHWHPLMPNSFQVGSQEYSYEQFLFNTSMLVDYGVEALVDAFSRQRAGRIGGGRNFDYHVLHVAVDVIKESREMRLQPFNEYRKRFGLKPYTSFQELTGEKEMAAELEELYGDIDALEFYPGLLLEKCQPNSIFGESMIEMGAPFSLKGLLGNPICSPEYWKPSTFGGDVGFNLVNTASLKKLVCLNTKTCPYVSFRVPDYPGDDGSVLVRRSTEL
Description: Inhibition of COX-1 in mouse RAW264.7 cells assessed as reduction in PGE2 production at 10 uM after 24 hrs by enzyme immunoassay. The series is classed as cell-based. The note with it: raw264.7, 24 h.

Calls of active or inactive are those of the source. The rule behind the calls is not given here.

In the case of `COc1ccc(C2CC(C)(OC)Oc3c2c(=O)oc2ccccc32)cc1` (single isomer, unassigned), the inhibition result in series [1] was “Dose-dependent effect”. In addition, the inhibition entry in the series with RAW264.7 [2] was “inactive”. For the same compound, the Activity result in the series with RAW264.7 [3] was “Non-Toxic”. The “inhibition (INH)” value in series [4] is listed as “Not Active”.

Source of the values: ChEMBL document CHEMBL4145523, “New selective cyclooxygenase-2 inhibitors from cyclocoumarol: Synthesis, characterization, biological evaluation and molecular modeling” (Eur J Med Chem, 2018).
